# Active and inactive are the calls of the source. The calls are words filed in the database; no cut-off is given here.
# Legend:
# Xenopus laevis [1] = species: Xenopus laevis; assay: (§1) Inhibition of DNA double strand break-induced ataxia telangiectasia mutated activation in Xenopus laevis extract assessed as inhibition of H2AX phosphorylation
# [2] = as §1
# Xenopus laevis [3] = species: Xenopus laevis; assay: Inhibition of ataxia telangiectasia mutated-dependent Nbs1 phosphorylation in Xenopus laevis extract assessed as electrophoretic mobility by Western blot analysis
# Xenopus laevis [4] = species: Xenopus laevis; assay: Inhibition of ataxia telangiectasia mutated-dependent Chk2 phosphorylation in Xenopus laevis extract assessed as electrophoretic mobility by Western blot analysis
# Xenopus laevis [5] = species: Xenopus laevis; assay: Inhibition of DNA double strand break-induced Mre11/Rad50/Nbs1-dependent ATM autophosphorylation at Ser1981
# [6] = Inhibition of dimeric recombinant ataxia telangiectasia mutated activation in Xenopus laevis extract in presence of DNA, Mre11/Rad50/Nbs1
# Xenopus laevis [7] = species: Xenopus laevis; assay: Inhibition of ataxia telangiectasia mutated binding to streptavidin-bound biotinylated DNA in Xenopus laevis extract up to 1 mM
# Xenopus laevis [8] = species: Xenopus laevis; assay: Inhibition of Mer11 binding to streptavidin-bound biotinylated DNA in Xenopus laevis extract up to 1 mM
# Xenopus laevis [9] = species: Xenopus laevis; assay: Inhibition of monomeric ataxia telangiectasia mutated catalytic activity at 50 uM
# Xenopus laevis [10] = species: Xenopus laevis; assay: Induction of FLAG-tagged Mre11/Rad50/Nbs1 dissociation in Xenopus laevis extract at 100 uM
# Nucleic Acid = assay: Inhibition of DNA tethering in Xenopus laevis extract at 10 uM; format: nucleic-acid assay
# Xenopus laevis [11] = species: Xenopus laevis; assay: Stimulation of Mre11/Rad50/Nbs1-dependent DNA tethering in Xenopus laevis extract at 100 uM
# [12] = target: T1, Double-strand break repair protein MRE11 (Homo sapiens) (UniProt P49959); assay: Inhibition of human Mre11 nuclease activity at 100 uM
# T1 sequence (whole entry): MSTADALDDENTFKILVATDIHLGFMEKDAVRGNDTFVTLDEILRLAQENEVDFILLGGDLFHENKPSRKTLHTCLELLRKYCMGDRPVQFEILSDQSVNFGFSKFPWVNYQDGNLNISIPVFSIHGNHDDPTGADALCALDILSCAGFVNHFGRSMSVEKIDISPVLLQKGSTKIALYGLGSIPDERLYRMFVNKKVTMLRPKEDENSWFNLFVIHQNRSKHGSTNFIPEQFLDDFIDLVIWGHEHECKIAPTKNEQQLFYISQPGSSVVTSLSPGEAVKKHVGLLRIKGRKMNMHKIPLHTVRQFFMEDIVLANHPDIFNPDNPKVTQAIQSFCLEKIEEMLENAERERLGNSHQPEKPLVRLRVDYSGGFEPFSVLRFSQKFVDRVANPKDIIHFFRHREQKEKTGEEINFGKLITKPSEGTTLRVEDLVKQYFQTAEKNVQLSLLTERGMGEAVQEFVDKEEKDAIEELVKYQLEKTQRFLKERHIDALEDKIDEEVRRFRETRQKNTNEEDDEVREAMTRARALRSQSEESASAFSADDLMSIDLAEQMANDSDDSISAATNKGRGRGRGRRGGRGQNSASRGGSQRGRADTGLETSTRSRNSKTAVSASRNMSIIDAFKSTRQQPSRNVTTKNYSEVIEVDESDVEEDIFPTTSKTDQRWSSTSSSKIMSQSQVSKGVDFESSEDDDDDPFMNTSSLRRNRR
# Homo sapiens = species: Homo sapiens; assay: Inhibition of human Mre11/Rad50/Nbs1-dependent DNA tethering assessed as Rad50-associated adenylate kinase activity at 0.05 to 0.8 mM
# [13] = target: T1, Double-strand break repair protein MRE11 (Homo sapiens); assay: Inhibition of human Mre11 ExoIII nuclease activity at 100 uM
# [14] = Cell cycle arrest in human TOSA4 cells assessed as accumulation at G2 phase at 50 uM after 24 hrs by FACS analysis; format: functional, cell-based
# [15] = Cell cycle arrest in human TOSA4 cells assessed as accumulation at G2 phase at 100 uM after 24 hrs by FACS analysis; format: functional, cell-based
# U2OS [16] = assay: Cell cycle arrest in human U2OS cells assessed as accumulation at G2 phase at 100 uM after 24 hrs by FACS analysis; format: functional, cell-based
# U2OS [17] = assay: Inhibition of 10 Gy irradiation-induced G2/M check point in human U2OS cells using G2 synchronized cells at 25 uM after 24 hrs by FACS analysis; format: functional, cell-based
# HEK293 [18] = assay: Cytotoxicity against human HEK293 cells at 25 uM after 24 hrs; format: cell-based; details: hek293, 24 h
# HEK293 [19] = assay: Cytotoxicity against human HEK293 cells at 50 uM after 24 hrs; format: cell-based; details: hek293, 24 h
# TOSA4 = assay: Inhibition of gene conversion in human TOSA4 cells transfected with I-Sec1 expressing plasmid assessed as decrease in GFP-positive cells at 25 uM after 24 hrs by gene conversion assay; format: functional, cell-based
structure (smiles),measurement,setting,value
O=c1cc(-c2ccccc2)[nH]c(=S)[nH]1,inhibition,Xenopus laevis [1],inactive
N=C1NC(=O)/C(=C/c2ccc(O)cc2)S1 [MIRIN],IC50,[2],66 µM
same,inhibition,Xenopus laevis [3],Active
same,inhibition,Xenopus laevis [4],Active
same,inhibition,Xenopus laevis [5],Active
same,IC50,[6],12 µM
same,inhibition,Xenopus laevis [7],inactive
same,inhibition,Xenopus laevis [8],inactive
same,inhibition,Xenopus laevis [9],inactive
same,Activity,Xenopus laevis [10],inactive
same,inhibition,Nucleic Acid,inactive
same,Activity,Xenopus laevis [11],Active
same,inhibition,[12],Active
same,Activity,Homo sapiens,inactive
same,inhibition,[13],inactive
same,Activity,[14],Active
same,Activity,[15],Active
same,Activity,U2OS [16],Active
same,inhibition,U2OS [17],Active
same,Activity,HEK293 [18],Non-toxic
same,Activity,HEK293 [19],Non-toxic
same,inhibition,TOSA4,Active

# Reference: ChEMBL document CHEMBL1212698, “A forward chemical genetic screen reveals an inhibitor of the Mre11-Rad50-Nbs1 complex” (Nat Chem Biol, 2008)
